Measured values as given in patent US6914045B2, “Glycopeptide antibiotics” (Wyeth Holdings Corporation, priority 2001, dated 2005).

How the values were obtained:
Streptococcus sp. = experiment: in vitro antibacterial evaluation, MIC by broth dilution; type: cell-based; conditions: broth dilution, 18 hours at 35° C.
Method in brief: (§1)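 Broth dilution per NCCLS M7-A2 in Mueller-Hinton II medium, inoculum 5×10^5 CFU/mL, antibiotic range 64-0.06 μg/mL. MIC taken as lowest concentration inhibiting growth; Gram-positive panel includes recent clinical isolates resistant to methicillin, penicillin and/or vancomycin.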

Staphylococcus sp. = experiment: as above; type: cell-based; conditions: broth dilution, 18 hours at 35° C.
Method in brief: as §1

Enterococcus sp. = experiment: as above; type: cell-based; conditions: broth dilution, 18 hours at 35° C.
Method in brief: as §1

[1] = anatomic pathology (histopathology of heart and kidney) in mice; type: in vivo; conditions: CD-1 mice, 20 mg/kg intravenously daily for 9 days, necropsy day 10, microscopic histopathology
Procedure: Samples of tissues from necropsied mice were formalin-fixed, paraffin-embedded, sectioned, stained with hematoxylin and eosin, and examined microscopically. Histopathologic findings were recorded. These findings were subjectively graded on a scale corresponding to slight, mild, moderate, marked and severe as compared to untreated controls.

[2] = clinical pathology (serum clinical chemistry) in mice; type: in vivo; conditions: CD-1 mice, 20 mg/kg intravenously daily for 9 days, sera day 10
Procedure: 20-day-old CD-1 mice were divided into a vehicle control group (5 mice) and a treatment group (5 mice). Samples of glycopeptide antibiotics were administered at 20 mg/kg intravenously daily for 9 days.

Escherichia coli = experiment: in vitro antibacterial evaluation, MIC by broth dilution; type: cell-based; conditions: 18 hours at 35° C.
Method in brief: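 Broth dilution MIC per NCCLS M7-A2 in Mueller-Hinton II medium, inoculum 5×10^5 CFU/mL, antibiotic range 64-0.06 μg/mL. MIC taken as lowest concentration inhibiting growth.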

CC(c1ccccc1)C1NC(=O)CNC(=O)C(CO)NC(=O)C(C(O)C2CN(CCCCCCCCCCC(=O)O)C(=N)N2C2OC(CO)C(O)C(O)C2O)NC(=O)C(C(O)C2CNC(=N)N2)NC(=O)C(Cc2ccc(OC3OC(CO)C(OC4OC(CO)C(O)C(O)C4O)C(O)C3O)cc2)NC1=O (stereo not drawn) [Example 72, Cyclo[glycyl-β-methylphenylalanyl-O-(4-O-hexopyranosylhexopyranosyl)tyrosyl-3-(2-iminoimidazolidin-4-yl)seryl-3-[1-(10-carboxydecyl)-3-hexopyranosyl-2-iminoimidazolidin-4-yl]serylseryl]]
++: Anatomical Pathology (Day 10), Kidney [1]
0: Anatomical Pathology (Day 10), Heart [1]
128 µg/mL: MIC Streptococcus agalactiae (GC 4564) (Streptococcus sp.) | MIC Streptococcus agalactiae (GC 4564) (Streptococcus sp.; strain GC 4564) | MIC Enterococcus faecium (GC 4557) (Enterococcus sp.; Enterococcus faecium (GC 4557)) | MIC Enterococcus faecium (GC 4557) (Enterococcus sp.)
32 µg/mL: MIC Escherichia coli (GC 4560) (Escherichia coli)
16 µg/mL: MIC Streptococcus pneumoniae (GC 1894) (Streptococcus sp.) | MIC Streptococcus pneumoniae (GC 1894) (Streptococcus sp.; strain GC 1894)
+122%: Clinical Chemistry (Day 10) % of Control, BUN [2]
64 µg/mL: MIC Streptococcus pneumoniae (ATCC 6301) (Streptococcus sp.) | MIC Streptococcus pneumoniae (GC 4565) (Streptococcus sp.) | MIC Streptococcus pyogenes (GC 4563) (Streptococcus sp.) | MIC Streptococcus pneumoniae (ATCC 6301) (Streptococcus sp.; strain ATCC 6301) | MIC Streptococcus pyogenes (GC 4563) (Streptococcus sp.; strain GC 4563) | MIC Streptococcus pneumoniae (GC 4565) (Streptococcus sp.; strain GC 4565) | MIC Enterococcus avium (GC 4558) (Enterococcus sp.; Enterococcus avium (GC 4558)) | MIC Enterococcus faecalis (GC 4553) (Enterococcus sp.; Enterococcus faecalis (GC 4553)) | MIC Enterococcus avium (GC 4558) (Enterococcus sp.) | MIC Enterococcus faecalis (GC 4553) (Enterococcus sp.)
>128 µg/mL: MIC Staphylococcus aureus (ATCC 29213) (Staphylococcus sp.; strain ATCC 29213) | MIC Staphylococcus aureus (GC 1131) (Staphylococcus sp.; strain GC 1131) | MIC Staphylococcus aureus (GC 3051) (Staphylococcus sp.; strain GC 3051) | MIC Staphylococcus aureus (GC 3053) (Staphylococcus sp.; strain GC 3053) | MIC Staphylococcus aureus (GC 4541) (Staphylococcus sp.; strain GC 4541) | MIC Staphylococcus aureus (GC 4542) (Staphylococcus sp.; strain GC 4542) | MIC Staphylococcus aureus-SMITH (GC 4543) (Staphylococcus sp.; strain GC 4543) | MIC Staphylococcus aureus (GC 4544) (Staphylococcus sp.; strain GC 4544) | MIC Staphylococcus aureus (GC 4545) (Staphylococcus sp.; strain GC 4545) | MIC Staphylococcus haemolyticus (GC 4546) (Staphylococcus sp.; strain GC 4546) | MIC Coagulase Negative Staphylococcus (GC 4547) (Staphylococcus sp.; strain GC 4547) | MIC Coagulase Negative Staphylococcus (GC 4548) (Staphylococcus sp.; strain GC 4548) | MIC Coagulase Negative Staphylococcus (GC 4549) (Staphylococcus sp.; strain GC 4549) | MIC Coagulase Negative Staphylococcus (GC 4551) (Staphylococcus sp.; strain GC 4551) | MIC Coagulase Negative Staphylococcus (GC 6257) (Staphylococcus sp.; strain GC 6257) | MIC Enterococcus faecalis (ATCC 29212) (Enterococcus sp.; Enterococcus faecalis (ATCC 29212)) | MIC Enterococcus faecalis (GC 4552) (Enterococcus sp.; Enterococcus faecalis (GC 4552)) | MIC Enterococcus faecalis (GC 4554) (Enterococcus sp.; Enterococcus faecalis (GC 4554)) | MIC Enterococcus faecalis (GC 6189) (Enterococcus sp.; Enterococcus faecalis (GC 6189)) | MIC Enterococcus faecium (GC 2243) (Enterococcus sp.; Enterococcus faecium (GC 2243)) | MIC Enterococcus faecium (GC 4556) (Enterococcus sp.; Enterococcus faecium (GC 4556)) | MIC Enterococcus faecalis (ATCC 29212) (Enterococcus sp.) | MIC Enterococcus faecalis (GC 2242) (Enterococcus sp.) | MIC Enterococcus faecalis (GC 2691) (Enterococcus sp.) | MIC Enterococcus faecalis (GC 3059) (Enterococcus sp.) | MIC Enterococcus faecalis (GC 4552) (Enterococcus sp.) | MIC Enterococcus faecalis (GC 4554) (Enterococcus sp.) | MIC Enterococcus faecalis (GC 6189) (Enterococcus sp.) | MIC Enterococcus faecium (GC 2243) (Enterococcus sp.) | MIC Enterococcus faecium (GC 4556) (Enterococcus sp.) | MIC Enterococcus faecalis (GC 2242) (Enterococcus sp.; strain GC 2242) | MIC Enterococcus faecalis (GC 2691) (Enterococcus sp.; strain GC 2691) | MIC Enterococcus faecalis (GC 3059) (Enterococcus sp.; strain GC 3059) | MIC Escherichia coli (ATCC 25922) (Escherichia coli) | MIC Escherichia coli (GC 4559) (Escherichia coli)
